# Results: patent US20230002375A1, “HYDROPYRAZINO[1,2-B]ISOQUINOLINE COMPOUNDS FOR THE TREATMENT OF AUTOIMMUNE DISEASE” (Hoffmann-La Roche Inc., priority 2019, published 2023)
# Legend:
# human TLR7 = target: T1, human TLR7 (Homo sapiens, UniProt Q9NYK1); experiment: HEK293-Blue-hTLR-7 cells assay (SEAP reporter, R848 stimulation); format: cell-based; conditions: HEK293-Blue-hTLR7 cells, R848, 20 hrs incubation; read-out: HEK/hTLR7 IC50
# T1 sequence (Q9NYK1 27-1049): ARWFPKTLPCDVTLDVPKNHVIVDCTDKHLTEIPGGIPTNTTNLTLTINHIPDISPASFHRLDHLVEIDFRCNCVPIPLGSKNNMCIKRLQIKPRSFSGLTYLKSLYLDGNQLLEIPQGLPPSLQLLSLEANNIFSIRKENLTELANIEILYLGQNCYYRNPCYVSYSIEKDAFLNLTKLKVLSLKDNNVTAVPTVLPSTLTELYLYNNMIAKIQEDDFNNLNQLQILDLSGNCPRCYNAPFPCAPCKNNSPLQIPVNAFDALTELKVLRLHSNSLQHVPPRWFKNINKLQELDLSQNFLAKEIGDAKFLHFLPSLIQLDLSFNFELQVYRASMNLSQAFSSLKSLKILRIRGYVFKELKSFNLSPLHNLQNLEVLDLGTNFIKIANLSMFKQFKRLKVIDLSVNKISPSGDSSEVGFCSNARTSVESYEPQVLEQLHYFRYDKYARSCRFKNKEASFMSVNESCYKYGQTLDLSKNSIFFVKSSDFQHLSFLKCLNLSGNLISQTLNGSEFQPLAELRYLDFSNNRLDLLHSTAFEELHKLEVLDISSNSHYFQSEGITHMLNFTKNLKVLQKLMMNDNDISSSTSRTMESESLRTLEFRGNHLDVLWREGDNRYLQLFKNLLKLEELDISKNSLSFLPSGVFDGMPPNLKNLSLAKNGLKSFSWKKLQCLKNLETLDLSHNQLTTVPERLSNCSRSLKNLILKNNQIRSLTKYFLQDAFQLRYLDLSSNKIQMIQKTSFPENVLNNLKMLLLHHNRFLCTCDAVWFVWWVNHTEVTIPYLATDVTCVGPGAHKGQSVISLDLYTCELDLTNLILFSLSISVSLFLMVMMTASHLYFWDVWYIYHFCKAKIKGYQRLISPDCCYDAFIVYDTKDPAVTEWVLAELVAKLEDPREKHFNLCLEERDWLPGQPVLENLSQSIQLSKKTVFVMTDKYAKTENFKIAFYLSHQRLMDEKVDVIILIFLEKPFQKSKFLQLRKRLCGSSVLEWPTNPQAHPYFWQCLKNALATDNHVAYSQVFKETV
# Procedure: The following tests were carried out in order to determine the activity of the compounds of formula (I), (Ia) or (Ib) in HEK293-Blue-hTLR-7/8/9 cells assay.
# HEK293-Blue-hTLR-7 Cells Assay:
# A stable HEK293-Blue-hTLR-7 cell line was purchased from InvivoGen (Cat.#: hkb-htlr7, San Diego, Calif., USA). These cells were originally designed for studying the stimulation of human TLR7 by monitoring the activation of NF-κB. A SEAP (secreted embryonic alkaline phosphatase) reporter gene was placed under the control of the IFN-β minimal promoter fused to five NF-κB and AP-1-binding sites. The SEAP was induced by activating NF-κB and AP-1 via stimulating HEK-Blue hTLR7 cells with TLR7 ligands. Therefore the reporter expression was declined by TLR7 antagonist under the stimulation of a ligand, such as R848 (Resiquimod), for incubation of 20 hrs. The cell culture supernatant SEAP reporter activity was determined using QUANTI-Blue™ kit (Cat.#: rep-qb1, Invivogen, San Diego, Ca, USA) at a wavelength of 640 nm, a detection medium that turns purple or blue in the presence of alkaline phosphatase.
# HEK293-Blue-hTLR7 cells were incubated at a density of 250,000˜450,000 cells/mL in a volume of 170 μL in a 96-well plate in Dulbecco's Modified Eagle's medium (DMEM) containing 4.5 g/L glucose, 50 U/mL penicillin, […], […], 2 mM L-glutamine, 10% (v/v) heat-inactivated fetal bovine serum with addition of 20 μL test compound in a serial dilution in the presence of final DMSO at 1% and 10 μL of 20 uM R848 in above DMEM, perform incubation under 37° C. in a CO2 incubator for 20 hrs. Then 20 μL of the supernatant from each well was incubated with 180 μL Quanti-blue substrate solution at 37° C. for 2 hrs and the absorbance was read at 620-655 nm using a spectrophotometer. The signaling pathway that TLR7 activation leads to downstream NF-κB activation has been widely accepted, and therefore similar reporter assay was modified for evaluating TLR7 antagonist.
# [1] = Human microsomal stability assay; format: in vitro ADME; conditions: human liver microsomes, 1 μM test compound, 0.5 mg/mL protein, 37° C.; low <7.0, medium 7.0-16.2, high 16.2-23.2 mL/min/kg
# Procedure: Human Microsomal Stability Assay
# Human liver microsomes (Cat.NO.: 452117, Corning, USA) were preincubated with test compound for 10 minutes at 37° C. in 100 mM potassium phosphate buffer, pH 7.4. The reactions were initiated by adding NADPH regenerating system. The final incubation mixtures contained 1 μM test compound, 0.5 mg/mL liver microsomal protein, 1 mM MgCl2, 1 mM NADP, 1 unit/mL isocitric dehydrogenase and 6 mM isocitric acid in 100 mM potassium phosphate buffer, pH 7.4. After incubation times of 0, 3, 6, 9, 15 and 30 minutes at 37° C., 300 μL of cold ACN (including internal standard) was added to 100 μL incubation mixture to terminate the reaction. Following precipitation and centrifugation, 100 uL supernatant will be taken out and added 300 uL water. The amount of compound remaining in the samples was determined by LC-MS/MS. Controls of no NADPH regenerating system at zero and 30 minutes were also prepared and analyzed. The results were categorized as: low (<7.0 mL/min/kg), medium (7.0-16.2 mL/min/kg) and high (16.2-23.2 mL/min/kg).
IC50 (human TLR7) [nM],CL(h) [1] [mL/min/kg],Compound
18.6,8.7,"C[C@@H]1CN(c2ccc(C#N)c3ncccc23)C[C@@H]2Cc3cc(N4CCN(C(=O)[C@]5(C)CCCN5)CC4)ccc3CN21 [Example 14, 5-[(4R,11aS)-4-methyl-9-[4-[(2S)-2-methylpyrrolidine-2-carbonyl]piperazin-1-yl]-1,3,4,6,11,11a-hexahydropyrazino[1,2-b]isoquinolin-2-yl]quinoline-8-carbonitrile]"
2.9,6.8,"C[C@@H]1CN(c2ccc(C#N)c3ncccc23)C[C@@H]2Cc3cc(N4CC(N)CC4=O)ccc3CN21 (stereo partly drawn) [Example 16, 5-[(4R,11aS)-9-(4-amino-2-oxo-pyrrolidin-1-yl)-4-methyl-1,3,4,6,11,11a-hexahydropyrazino[1,2-b]isoquinolin-2-yl]quinoline-8-carbonitrile]"
